Results reported in US6410009B1, “Pharmaceutical composition for treating hepatitis B virus (HBV) infection” (Hadasit Medical Research Services & Development Co., Ltd., priority 1997, dated 2002).

Legend:
HBV [1] = assay: HBV-DNA by PCR in sera of chimeric mice after intrasplenic injection of HepG2-derived cell lines incubated with HBV with or without hIL6; assay type: in vivo, SCID>BNX chimeric mice; conditions: HepG2-hIL6R cells incubated with HBV in the presence of hIL6
Description: Following incubation, the various mixtures were injected intrasplenically to the chimeric mice to generate HCC foci in the liver, as shown in FIG. 4.
All cell lines grew in T25 flasks supplemented with DMEM medium, enriched with 10% fetal bovine serum. For infection experiments, cells were trypsinized and washed twice with PBS, followed by incubation with HBV-positive human sera ([…]) in the presence or absence of hIL6 (500 ng/ml) in 1-2 ml of DMEM. After 2-4 h incubation at 37° C., 4×10^6 cells/ml, 0.5 ml/mouse were injected intrasplenically to 8-10 SCID>BNX mice in each group. Animals were splenectomized following the injection.
Mice were bled at two weekly intervals for 3 months, and DNA was extracted from 100 μl sera. The DNA was subjected to PCR amplification. The DNA extraction and the PCR method applied are described in the legend of FIG. 3.

HBV [2] = assay: HBV infection of human hepatocellular carcinoma cell line HuH7; assay type: cell-based; conditions: hIL-6 500 ng/ml
Description: HBV infection protocol of human hepatocellular carcinoma cell line HuH7: Human sera were screened for the presence of HBV DNA sequences. Positive sera were analyzed quantitatively for viral particle concentration, as described by A. Klein, J. Clin. Microb., vol. 35, pp. 1897-1899 […]. Sera containing over 108 particles per ml were selected for infection experiments. The infection experiments included the following groups: Group 1—Cells were incubated with HBV without the addition of hIL-6 in the presence of polybrene 2 mg/ml, for 90 min at 37° C., in a 5% CO2 shaking incubator, in a total volume of 1.5 to 2 ml. Group 2—Cells were incubated with 1 ml of HBV positive serum, in the presence of hIL-6 (500 ng/ml) and polybrene 2 mg/ml, for 90 min at 37° C., in a 5% CO2 incubator, in a total volume of 1.5 to 2 ml. Group 3—Cells were incubated with 1 ml of HBV positive serum, in the presence of the cytokine hyper-IL-6 (HIL-6), 1.5 mg/ml, and polybrene 2 mg/ml, for 90 min at 37° C., in a 5% CO2 shaking incubator, in a total volume of 1.5 to 2 ml. The preparation of the cytokine hyper-IL-6 (HIL-6) is described in M. Fischer, et al., Nat. Biotechnol., vol. 15, pp. 142-145 (1997); T. Rakemann et al., J. Biol. Chem., vol. 274, pp. 1257-1266 (1999); P. Schirmacher et al., Am. J. Pathol., vol. 153, pp. 639-648 (1998). […]

HBV [3] = assay: HBV viremia in SCID>BNX chimeric mice transplanted with normal human liver fragments incubated ex-vivo with HBV-positive sera with hIL6
Description: A fragment of normal human liver from a patient with no indication of any HBV-related markers or disease, was incubated ex-vivo with a high titer HBV DNA-positive serum prior to transplantation under the kidney capsule of the chimeric animals. HBV DNA sequences were undetectable by PCR from two different genomic regions in any of these animals during the month following transplantation.
However, when liver tissue originating from the same patients was incubated ex-vivo with the above-mentioned HBV DNA-positive sera together with hIL6, HBV DNA sequences were detected from day 16 to day 31, in sera of about 50% of the transplanted animals.
Pre-exposure of liver tissue to hIL6 prior to incubation with HBV ex-vivo, increased infection to about 90% of the animals. […]
The 50 μl PCR reaction volume contained 10 pmole of each oligonucleotide primer in reaction buffer (10 mM Tris-HCl, pH 8.3, 50 mM KCl, 2.0 mM MgCl2, 0.01 % (w/v) gelatin, 250 μM of dATP, dGTP, dCTP, dTTP and 0.5 u of Taq polymerase. The reaction mixtures were overlaid with 30 μl of mineral oil. PCR cycles included 94° C. for 1 min., 55° C. for 1 min. and 72° C. for 3 min., 35 repeated cycles. 10 μl of reaction mixture was analyzed on a 2% agarose gel. Oligonucleotides used for the pre-core/core amplification were: […]

Substance: hIL6: human interleukin 6
- time after transplantation at which HBV-DNA sequences could be detected in serum (HBV [1]): 13 days
- HBV infection of HuH7 cells (HBV [2]): enhanced
- transplanted animals with HBV DNA sequences detected in sera (HBV [3]; liver tissue incubated ex-vivo with HBV DNA-positive sera together with hIL6 (500 ng/ml), day 16 to day 31): about 50%
- animals infected (HBV [3]; pre-exposure of liver tissue to hIL6 prior to incubation with HBV ex-vivo): about 90%
